One assay concerns pS897-EphA2. Description: Immunoblot with polyclonal anti-pS897-EphA2, U373 cells. The following applies: for serum-induced pS897-EphA2 under FGFR inhibition: U373 cells pretreated with 10 μM SU5402 or 100 nM BU for 30 min, 10% FBS 10 min; for induction of pS897-EphA2: serum-starved U373 cells, 10 ng/ml growth factor, 10 min. In kind it is cell-based, human. How it is done:
For stationary cells, sub-confluent cells were stimulated with 1 μg/ml ephrinA1-Fc for different times. To study the signaling events in migrating cells, the monolayer of freshly confluent cells was wounded by repeated scratch-wounding using a multichannel pipette. By doing so, the cells on the wound edges were induced to migrate. Four hours after wounding cells were stimulated with 1 μg/ml ephrinA1-Fc for different times. To look at the serum-induced signaling, cells were starved in serum-free medium overnight before stimulation or wounding. Both stationary and wounded cells were stimulated with 10% FBS in the presence of 1 μg/ml Fc or ephrinA1-Fc. Immunoprecipitation and immunoblot were performed as described previously (Nat. Cell Biol. 2, 62-69).

The next assay relates to U373 cells. The assay can be described thus: Boyden chamber chemotactic cell migration assay. In kind it is cell-based, human. The settings on record: 10 ng/ml growth factor or 10 μM LPA. How it is done:
The chemotactic cell migration was carried out as described previously (J. Cell Biol. 162, 1281-1292). Briefly, both sides of the filter were coated with 10 μg/ml rat tail collagen type I at 4° C. overnight. 1×10^5 cells in serum-free medium containing 0.1% BSA were plated in the top of insert. EphrinA1-Fc or Fc was added to a final concentration of 1 μg/ml to the lower chamber together 5% FBS or various growth factors. Cells were allowed to migrate for 4 hours and then fixed with 4% paraformaldehyde. After staining with 0.5% crystal violet, cells that have passed through the filter and stayed on the undersides of inserts were counted.

“Also recorded” adds a separate entry of the source.

`COc1cc(OC)cc(-c2cc3cnc(N)nc3nc2NC(=O)NC(C)(C)C)c1` [BU, 1-(2-Amino-6-(3,5-dimethoxyphenyl)pyrido[2,3-d]pyrimidin-7-yl)-3-tert-butyl urea, reference compound]: in the assay on pS897-EphA2, the “serum-induced pS897-EphA2 under FGFR inhibition” value is “not sufficient for inhibiting serum-induced pS897-EphA2”.
Turning to `CCCCCCCCCCCCCCCCCCOC[C@H](COP(=O)(O)O[C@H]1[C@H](O)[C@@H](O)[C@H](O)C[C@H]1OC)OC` [SH-5, reference compound], in the assay on pS897-EphA2 (serum-starved U373 cells pretreated with 10 μM inhibitor (SH-5 30 min; LY294002 1 hour), FBS 10 min), the “serum-induced pS897-EphA2 (S897 phosphorylation)” value is recorded as “suppressed S897 phosphorylation; also recorded: abolishes serum-induced pS897-EphA2”.
As to `Cc1c[nH]c(/C=C2\C(=O)Nc3ccccc32)c1CCC(=O)O` [SU5402, reference compound], the “serum-induced pS897-EphA2 under FGFR inhibition” value with pS897-EphA2 is “not sufficient for inhibiting serum-induced pS897-EphA2”.
“EGF: growth factor implicated in development of human GBM (NSDSECPLSHDGYCLHDGVCMYIEALDKYACNCVVGYIGERCQYRDLKWWELR; UniProt P01133 971-1023, looked up)”: the “chemoattractant activity (chemotactic cell migration)” value in the assay on U373 cells is listed as “potent chemoattractants”. In the assay on pS897-EphA2, the “induction of pS897-EphA2” value is given as “capable of inducing pS897-EphA2”.
For the compound “HGF: growth factor implicated in development of human GBM”, in the assay on U373 cells, the “chemoattractant activity (chemotactic cell migration)” value is on record as “potent chemoattractants”. The “induction of pS897-EphA2” value with pS897-EphA2 is “capable of inducing pS897-EphA2”.
On the same counts, the results for PDGF are “potent chemoattractants” and “capable of inducing pS897-EphA2”.
On the same counts, the results for “bFGF: growth factor implicated in development of human GBM” are “potent chemoattractants” and “capable of inducing pS897-EphA2”.

These data come from patent US8603764B2, “EphA kinase cancer diagnostic” (Case Western Reserve University, priority 2009, dated 2013).
